Results from ChEMBL document CHEMBL1122165, “Retinoids at the threshold: their biological significance and therapeutic potential” (J Med Chem, 1982).

Legend:
[1] = test system: Mus musculus; experiment: Lowest daily intraperitoneal dose causing hypervitaminosis A symptoms was determined in a 2-week period in mice; format: functional
[2] = test system: Mus musculus; experiment: Antipapilloma activity was determined after intraperitoneal administration in mice; format: functional; settings: ip

Row | SMILES | Dose [1] [mg/kg] | ED50 [2] [mg/kg]
1 | CCOC(=O)/C=C(C)/C=C/C=C(C)/C=C/c1c(Cl)cc(OC)c(C)c1Cl | 12 | 6
2 | CCOC(=O)c1ccc(/C=C(\C)c2ccc3c(c2)C(C)(C)CCC3(C)C)cc1 [AROTINOID] | 0.1 | 0.05
3 | COc1cc(C)c(/C=C/C(C)=C/C=C(F)/C(C)=C/C(=O)O)c(C)c1C | 25 | 11.5
4 | CC1=C(/C=C/C(C)=C/C=C/C(C)=C\C(=O)O)C(C)(C)CCC1 [ISOTRETINOIN] | 400 | 800
5 | CC1=C(/C=C/C(C)=C/C=C/C(C)=C/C(=O)O)C(C)(C)CCC1 [TRETINOIN] | 80 | 400
6 | CCOC(=O)/C=C(C)/C=C/C=C(C)/C=C/c1c(C)sc(C)c1C | 200 | 75
7 | CCOC(=O)/C=C(C)/C=C/C=C(C)/C=C/c1c(C)cc(OC)c(C)c1C [ETRETINATE] | 50 | 25
